Tests used:
RET = RET (Homo sapiens (Human), UniProt P07949); assay: Enzyme selectivity test (ELISA), RET; format: biochemical
Method: (§1) 1) Enzyme reaction substrate Poly(Glu, Tyr) 4:1 was diluted to 20 μg/mL with potassium-free PBS (10 mM sodium phosphate buffer, 150 mM NaCl, pH 7.2-7.4), and the microtiter plate was coated with 125 μL/well and placed at 37° C. for 12-16 hours of reaction. The liquid in the well was discard. The plate was washed three times with T-PBS (potassium-free PBS containing 0.1% Tween-20, 200 μL/well), 5 minutes each time. The ELISA plate was dried in an oven at 37° C. for 1 to 2 hours.
(§2) 2) Reaction buffer (50 mM HEPES pH 7.4, 50 mM MgCl2, 0.5 mM MnCl2, 0.2 mM Na3VO4, 1 mM DTT) diluted ATP solution (49 μL) was added to each well, 1 μL of the compound to be tested was added to each well, and then 50 μL of DDR2 kinase domain recombinant protein diluted in the reaction buffer was added to start the reaction. Two control wells without ATP were set in each experiment. The plate placed on a shaker (100 rpm) at 37° C. for 1 hour of reaction. The liquid in the well was discarded and the plate was washed three times with T-PBS.
(§3) 3) Antibody PY99 dilution solution (the antibody was diluted 1:500 with T-PBS containing BSA 5 mg/mL) was added at 100 μL/well, and shaken on a shaker at 37° C. for 0.5 hour of reaction. The liquid in the well was discarded and the plate was washed three times with T-PBS.
(§4) 4) Horseradish peroxidase labeled goat anti-murine secondary antibody dilution solution (the antibody is diluted 1:2000 with T-PBS containing BSA 5 mg/ml) was added at 100 μL/well, and shaken on a shaker at 37° C. for 0.5 hour of reaction. The liquid in the well was discarded and the plate was washed three times with T-PBS.
(§5) 5) 2 mg/ml of OPD color developing solution [diluted with 0.1 M citric acid-sodium citrate buffer (pH=5.4) containing 0.03% H2O2] was added at 100 μL/well and reacted for 1 to 10 minutes at 25° C. in the dark.
(§6) 6) 2M H2SO4 was added at 50 μL/well to stop the reaction, and a tunable wavelength microplate reader VERSAmax was used for reading at a wavelength of 490 nm.
(§7) The IC50 value was obtained by four-parameter regression using the software that came with the microplate reader. […]

FGFR-1 = FGFR-1 (Homo sapiens (Human), UniProt P11362); assay: Enzyme selectivity test (ELISA), FGFR-1; format: biochemical
FGFR-1, sequence (P11362 22-822, species assumed): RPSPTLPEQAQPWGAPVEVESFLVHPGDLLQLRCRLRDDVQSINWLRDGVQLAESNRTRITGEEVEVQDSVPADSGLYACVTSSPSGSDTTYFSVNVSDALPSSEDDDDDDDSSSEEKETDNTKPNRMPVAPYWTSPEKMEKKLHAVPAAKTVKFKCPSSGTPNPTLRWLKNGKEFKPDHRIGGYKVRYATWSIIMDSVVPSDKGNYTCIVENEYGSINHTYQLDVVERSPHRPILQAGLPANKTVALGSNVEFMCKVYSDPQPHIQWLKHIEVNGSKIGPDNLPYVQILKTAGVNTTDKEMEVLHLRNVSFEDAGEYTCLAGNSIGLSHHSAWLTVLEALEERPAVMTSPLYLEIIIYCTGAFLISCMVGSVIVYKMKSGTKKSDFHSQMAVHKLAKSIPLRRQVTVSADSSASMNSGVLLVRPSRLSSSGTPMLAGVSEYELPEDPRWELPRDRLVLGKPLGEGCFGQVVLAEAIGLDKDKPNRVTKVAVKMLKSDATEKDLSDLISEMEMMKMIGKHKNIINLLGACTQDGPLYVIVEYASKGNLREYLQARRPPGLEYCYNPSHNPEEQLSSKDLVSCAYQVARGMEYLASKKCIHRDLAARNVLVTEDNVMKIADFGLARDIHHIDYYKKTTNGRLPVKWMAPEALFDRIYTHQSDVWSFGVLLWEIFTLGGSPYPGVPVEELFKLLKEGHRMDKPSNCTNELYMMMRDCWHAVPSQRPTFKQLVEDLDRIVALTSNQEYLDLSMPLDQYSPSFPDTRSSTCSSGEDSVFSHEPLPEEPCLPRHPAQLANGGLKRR
Method: as §1, §2, §3, §4, §5, §6, §7

[1] = tested on: mouse model of BLM-induced lung injury; assay: Total number of cells and protein concentration in BALF; format: in vivo; details: mice; 30, 60, 90 mg/kg oral qd
Method: 1. The determination of the total number of cells in BALF. The collected BALF was centrifuged at 1000 rpm at 4° C. for 10 minutes, and 25× Cocktail was added to the supernatant and stored at −80° C. for protein concentration detection and subsequent cytokine determination. The cell pellet was resuspend in 50 μL of saline. The total number of cells in BALF was determined with a cell counting instrument.
2. Determination of protein concentration. In the experiment, the BCA protein concentration determination kit (Beyotime) was used to determine the concentration of total protein in BALF. The experimental steps are as follows:
a. 0.8 ml protein standard formulation solution was added to a tube of protein standard (20 mg BSA), dissolved and mixed thoroughly to prepare a protein standard solution at 25 mg/ml. After preparation, the protein standard solution can be used immediately and stored at −20° C.
b. An appropriate amount of 25 mg/ml of protein standard solution was taken and diluted to the target concentration of 0.5 mg/ml. Note that the protein sample and the standard should be diluted with the same solution, or the standard can be diluted with 0.9% NaCl or PBS. […]
d. The absorbance in the wavelength range of 540-595 nm was measured or a microplate reader was used to measure A562.
e. The protein concentration in the sample was calculated according to the sample volume used and standard curve.

primary lung fibroblasts = assay: Activation of myofibroblasts in primary lung fibroblasts isolated from mice; format: cell-based, mouse; details: primary lung fibroblasts isolated from mice of the experimental groups

RET, sequence (P07949 29-1114, species assumed): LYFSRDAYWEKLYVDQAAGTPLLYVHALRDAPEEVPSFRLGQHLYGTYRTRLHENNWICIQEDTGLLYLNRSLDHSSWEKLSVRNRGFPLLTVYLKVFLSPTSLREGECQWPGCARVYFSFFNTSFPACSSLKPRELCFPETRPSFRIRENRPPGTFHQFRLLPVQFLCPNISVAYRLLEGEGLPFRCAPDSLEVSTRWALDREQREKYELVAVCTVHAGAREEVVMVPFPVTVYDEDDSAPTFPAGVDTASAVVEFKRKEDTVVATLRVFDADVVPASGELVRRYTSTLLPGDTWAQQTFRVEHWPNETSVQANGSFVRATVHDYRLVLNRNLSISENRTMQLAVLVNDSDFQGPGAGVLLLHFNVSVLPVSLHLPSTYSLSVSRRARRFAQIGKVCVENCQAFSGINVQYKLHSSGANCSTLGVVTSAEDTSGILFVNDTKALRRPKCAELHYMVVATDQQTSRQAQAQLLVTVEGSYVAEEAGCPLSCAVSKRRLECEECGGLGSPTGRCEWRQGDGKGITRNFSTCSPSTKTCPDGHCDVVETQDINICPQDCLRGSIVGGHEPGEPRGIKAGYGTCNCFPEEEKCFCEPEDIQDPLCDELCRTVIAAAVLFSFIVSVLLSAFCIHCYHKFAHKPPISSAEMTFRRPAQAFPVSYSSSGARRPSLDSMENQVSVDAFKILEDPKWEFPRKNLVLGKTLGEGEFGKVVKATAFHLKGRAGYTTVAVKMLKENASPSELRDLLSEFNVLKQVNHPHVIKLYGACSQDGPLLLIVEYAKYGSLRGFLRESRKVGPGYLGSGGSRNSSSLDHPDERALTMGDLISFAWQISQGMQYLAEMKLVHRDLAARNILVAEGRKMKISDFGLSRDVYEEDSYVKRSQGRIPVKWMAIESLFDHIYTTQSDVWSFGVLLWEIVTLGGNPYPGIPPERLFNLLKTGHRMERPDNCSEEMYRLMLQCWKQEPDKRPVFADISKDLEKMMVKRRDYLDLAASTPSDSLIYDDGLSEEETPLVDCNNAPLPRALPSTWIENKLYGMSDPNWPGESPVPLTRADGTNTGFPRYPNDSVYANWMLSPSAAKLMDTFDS

## O=C(Nc1cccc(C(F)(F)F)c1)c1ccc(C2CC2)c(-c2ccc3nc(Nc4cnn(C5CC5)c4)ncc3c2)c1 [Compound S15, 4-cyclopropyl-3-(2-((1-cyclopropyl-1H-pyrazol-4-yl)amino)quinazolin-6-yl)-N-(3-(trifluoromethyl)phenyl)benzamide]
RET
  IC50: > 1000 nM
FGFR-1
  IC50: > 10 nM
[1]
  protein concentration in BALF: reduce the number of inflammatory cells and the concentration of related proteins in a dose-dependent manner
  total number of inflammatory cells in BALF: reduce the number of inflammatory cells and the concentration of related proteins in a dose-dependent manner
Primary lung fibroblasts
  activation of myofibroblasts: inhibit the activation of myofibroblasts in a dose-dependent manner

Source: US11655239B2 (SHANGHAI INSTITUTE OF MATERIAL MEDICA, CHINESE ACADEMY OF …, priority 2019, dated 2023)
